Measured values from patent US10010547B2 (CASCADIAN THERAPEUTICS, INC., priority 2014, dated 2018).
Counter-ions that a name gives are not always drawn. Like-named read-outs stand apart in the source and are kept apart here.

What was measured:
Chk-1 kinase = Chk-1 kinase (Homo sapiens (Human), UniProt O14757); experiment: Chk-1 Kinase Inhibiting Activity (33P-ATP filter assay, CHKtide substrate); format: biochemical
Experimental: Chk-1 Kinase Inhibiting Activity
The compounds of the invention were tested for activity against Chk-1 kinase using the materials and protocols set out below.
Base Reaction buffer: 20 mM Hepes (pH 7.5), 10 mM MgCl2, 1 mM EGTA, 0.02% Brij35, 0.02 mg/ml BSA, 0.1 mM Na3VO4, 2 mM DTT, 1% DMSO
*Required cofactors are added individually to each kinase reaction
(i) Prepare indicated substrate in freshly prepared Base Reaction Buffer
(ii) Deliver any required cofactors to the substrate solution above
(iii) Deliver indicated kinase into the substrate solution and gently mix
(iv) Deliver compounds in DMSO into the kinase reaction mixture
(v) Deliver ^33P-ATP (specific activity 0.01 μCi/μl final) into the reaction mixture to initiate the reaction.
(vi) Incubate kinase reaction for 120 minutes at room temperature
(vii) Reactions are spotted onto P81 ion exchange paper (Whatman #3698-915)
(viii) Wash filters extensively in 0.1% phosphoric acid.
(ix) Dry filters and measure counts in scintillation counter
Recombinant full length construct, N-terminal GST tagged, purified from insect cells.
No special measures were taken to activate this kinase.
Final concentration in assay=0.5 nM
Peptide sequence: [[…]]
Final concentration in assay=20 μM
No additional cofactors are added to the reaction mixture
From the results obtained by following the above protocol, the IC50 values against Chk-1 kinase of each of the compounds of Examples 1-153 were determined and these are shown in Table 3.

MIA PaCa-2 cells = experiment: Gemcitabine Combination Cell Assay (Cell Titer Glo); format: cell-based; details: for IC50: Homo sapiens; for 10xLS: approximate concentration of Chk1 inhibitor that results in a 10-fold reduction in the IC50 of gemcitabine alone; for 2xLS: approximate concentration of Chk1 inhibitor that results in a two-fold reduction in the IC50 of gemcitabine alone
Experimental: Gemcitabine Combination Cell Assay
Exponentially growing MIA PaCa-2 (ATCC CRL-1420) cells are treated with trypsin to remove cells from the plate surface. Approximately 10,000 cells/well are plated in 96 well plates in RPMI containing 10% fetal bovine serum, 1% sodium pyruvate and 1% L-GlutaMax. Cells are allowed to adhere to the plate surface overnight. Serial half-log dilutions of Chk1 inhibitor test compounds and gemcitabine are made with a final highest concentration of 3000 nM and 100 nM, respectively. Chk1 inhibitors and gemcitabine are combined so that each concentration of Chk1 inhibitor is added to each concentration of gemcitabine. Each drug is also tested as a single agent. Drugs are added to adherent cells (in duplicate) and incubated for 72 h. At 72 h the cells are treated with Promega Cell Titer Glo reagent for approximately 15 minutes. Luminescence (relative light units, RLU) is recorded using a BMG Polarstar Omega plate reader. The single agent concentration that results in a 50% reduction in total signal (IC50) is calculated using PRISM software and a four-parameter non-linear regression curve fit. For combination studies the RLUs are plotted using PRISM on an XY plot with the gemcitabine concentration on the X axis and RLU on the Y axis. The RLU for each concentration of Chk1 inhibitor is plotted as a function of gemcitabine concentration. The IC50 for gemcitabine alone and at each concentration of Chk1 is determined using a four-parameter non-linear regression curve fit. The approximate concentration of Chk1 inhibitor that results in a two and ten-fold reduction in the IC50 of gemcitabine alone is calculated as an indication of synergistic potency.
From the results obtained by following the above protocol, the IC50 values against MIAPaca-2 cells of the Chk1 inhibitor alone (Chk1 IC50), the approximate concentration of Chk1 inhibitor that results in a two-fold (2×LS) and a 10-fold (10×LS) reduction in the IC50 of gemcitabine alone of each of the compounds of Examples 1-154 are shown in Table 4.

[1] = against Chk-1 kinase, read-out: IC50
[2] = Chk1 inhibitor alone, MIA PaCa-2 cells, 72 h, read-out: Chk1 IC50

Chain of Chk-1 kinase (O14757 whole entry): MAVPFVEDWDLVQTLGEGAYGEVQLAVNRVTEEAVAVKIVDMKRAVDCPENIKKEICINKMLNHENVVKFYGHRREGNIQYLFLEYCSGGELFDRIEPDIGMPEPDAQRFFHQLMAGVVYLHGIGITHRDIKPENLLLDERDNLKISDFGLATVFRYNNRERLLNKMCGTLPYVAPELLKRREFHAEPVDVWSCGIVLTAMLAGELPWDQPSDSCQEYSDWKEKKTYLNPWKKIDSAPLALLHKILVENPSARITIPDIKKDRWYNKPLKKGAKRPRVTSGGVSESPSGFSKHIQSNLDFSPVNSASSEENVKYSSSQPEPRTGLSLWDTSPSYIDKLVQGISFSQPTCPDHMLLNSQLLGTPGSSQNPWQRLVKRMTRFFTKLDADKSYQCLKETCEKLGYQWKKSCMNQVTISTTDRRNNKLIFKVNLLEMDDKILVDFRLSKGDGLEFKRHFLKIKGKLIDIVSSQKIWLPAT

SMILES	IC50 (Chk-1 kinase; [1])	IC50 (MIA PaCa-2 cells; [2])	10xLS (MIA PaCa-2 cells; MIA PaCa-2 cells, 72 h)	2xLS (MIA PaCa-2 cells; MIA PaCa-2 cells, 72 h)	IC50 (MIA PaCa-2 cells; MIA PaCa-2, 72 h, read-out: Chk1 IC50 (nM))	IC50 (Chk-1 kinase)
COc1cc(C2CCNCC2)ccc1-c1cc(Nc2cnc(C#N)cn2)n[nH]1 [Example 20, 5-[[5-[2-methoxy-4-(4-piperidyl)phenyl]-1H-pyrazol-3-yl]amino]pyrazine-2-carbonitrile]	0.29 nM	1110 nM	100 nM	~5 nM	–	–
COc1cc(C2CCN(C)CC2)c(F)cc1-c1cc(Nc2cnc(C#N)cn2)n[nH]1 [Example 32, 5-[[5-[5-fluoro-2-methoxy-4-(1-methyl-4-piperidyl)phenyl]-1H-pyrazol-3-yl]amino]pyrazine-2-carbonitrile]	0.26 nM	784 nM	300 nM	30 nM	–	–
COc1cc(N2CCOCC2)ccc1-c1cc(Nc2cnc(C#N)cn2)n[nH]1 [Example 79, 5-[[5-(2-methoxy-4-morpholino-phenyl)-1H-pyrazol-3-yl]amino]pyrazine-2-carbonitrile]	0.4 nM	478 nM	100 nM	3 nM	–	–
COc1cc(NCC2CCN(C)CC2)ccc1-c1cc(Nc2cnc(C#N)cn2)n[nH]1 [Example 107, 5-[[5-[2-Methoxy-4-[(1-methyl-4-piperidyl)methylamino]phenyl]-1H-pyrazol-3-yl]amino]pyrazine-2-carbonitrile hydrochloride]	0.081 nM	–	100 nM	3 nM	160 nM	–
CC(C)Oc1cc(C2CCN(C)CC2)ccc1-c1cc(Nc2cnc(C#N)cn2)n[nH]1 [Example 38, 5-[[5-[2-isopropoxy-4-(1-methyl-4-piperidyl)phenyl]-1H-pyrazol-3-yl]amino]pyrazine-2-carbonitrile]	0.88 nM	2750 nM	1000 nM	100 nM	–	–
N#Cc1cnc(Nc2cc(-c3ccc(N4CCNCC4)cc3OC(F)(F)F)[nH]n2)cn1 [Example 153]	–	1200 nM	1000 nM	100 nM	–	3.8 nM
CCN1CCC(c2ccc(-c3cc(Nc4cnc(C#N)cn4)n[nH]3)c(OC)c2)C(F)(F)C1 (centres unmarked) [Example 98, 5-[[5-[4-(1-ethyl-3,3-difluoro-4-piperidyl)-2-methoxy-phenyl]-1H-pyrazol-3-yl]amino]pyrazine-2-carbonitrile]	1.8 nM	1780 nM	<1000 nM	10 nM	–	–
N#Cc1cnc(Nc2cc(-c3ccc(C4CCNCC4)cc3F)[nH]n2)cn1 [Example 51, 5-[[5-[2-fluoro-4-(4-piperidyl)phenyl]-1H-pyrazol-3-yl]amino]pyrazine-2-carbonitrile]	6.3 nM	> 3000 nM	3000 nM	300 nM	–	–

Further compounds by falling IC50 (Chk-1 kinase; [1]), results first:

IC50 (Chk-1 kinase; [1])	IC50 (MIA PaCa-2 cells; [2])	SMILES	10xLS (MIA PaCa-2 cells; MIA PaCa-2 cells, 72 h)	2xLS (MIA PaCa-2 cells; MIA PaCa-2 cells, 72 h)	IC50 (MIA PaCa-2 cells; MIA PaCa-2, 72 h, read-out: Chk1 IC50 (nM))	IC50 (Chk-1 kinase)
0.17 nM	1610 nM	COc1cc(CN[C@H](C)CN2CCOCC2)ccc1-c1cc(Nc2cnc(C#N)cn2)n[nH]1 [Example 18, 5-[[5-[2-methoxy-4-[[[(1R)-1-methyl-2-morpholino-ethyl]amino]methyl]phenyl]-1H-pyrazol-3-yl]amino]pyrazine-2-carbonitrile]	~200 nM	~5 nM	–	–
0.16 nM	1200 nM	COc1cc([C@@H]2CN(C(C)C)CCO2)ccc1-c1cc(Nc2cnc(C#N)cn2)n[nH]1 [Example 147, 5-[[5-[4-[(2R)-4-isopropylmorpholin-2-yl]-2-methoxy-phenyl]-1H-pyrazol-3-yl]amino]pyrazine-2-carbonitrile]	300 nM	10 nM	–	–
0.14 nM	183 nM	COc1cc(OCC2CCCN2)ccc1-c1cc(Nc2cnc(C#N)cn2)n[nH]1 (centres unmarked) [Example 34, 5-[[5-[2-methoxy-4-(pyrrolidin-2-ylmethoxy)phenyl]-1H-pyrazol-3-yl]amino]pyrazine-2-carbonitrile]	100 nM	3 nM	–	–
0.084 nM	875 nM	COc1cc(C2CCN(CC(N)=O)CC2)ccc1-c1cc(Nc2cnc(C#N)cn2)n[nH]1 [Example 62, 2-[4-[4-[3-[(5-cyanopyrazin-2-yl)amino]-1H-pyrazol-5-yl]-3-methoxy-phenyl]-1-piperidyl]acetamide]	300 nM	10 nM	–	–
0.068 nM	176 nM	COc1cc(OCC2CCN(C)CC2)ccc1-c1cc(Nc2cnc(C#N)cn2)n[nH]1 [Example 29, 5-[[5-[2-methoxy-4-[(1-methyl-4-piperidyl)methoxy]phenyl]-1H-pyrazol-3-yl]amino]pyrazine-2-carbonitrile]	100 nM	3 nM	–	–
0.056 nM	210 nM	CCN1CCC[C@@H]1COc1ccc(-c2cc(Nc3cnc(C#N)cn3)n[nH]2)c(OC)c1 [Example 126, 5-[[5-[4-[[(2R)-1-ethylpyrrolidin-2-yl]methoxy]-2-methoxy-phenyl]-1H-pyrazol-3-yl]amino]pyrazine-2-carbonitrile]	<100 nM	3 nM	–	–
0.048 nM	256 nM	COc1cc(N2CCN(C(C)C)CC2)cc(F)c1-c1cc(Nc2cnc(C#N)cn2)n[nH]1 [Example 137, 5-[[5-[4-(4-isopropylpiperazin-1-yl)-2-fluoro-6-methoxy-phenyl]-1H-pyrazol-3-yl]amino]pyrazine-2-carbonitrile]	<100 nM	<3 nM	–	–
0.043 nM	77 nM	CCN1CCC(CNc2ccc(-c3cc(Nc4cnc(C#N)cn4)n[nH]3)c(OC)c2)CC1 [Example 108, 5-[[5-[4-[(1-ethyl-4-piperidyl)methylamino]-2-methoxy-phenyl]-1H-pyrazol-3-yl]amino]pyrazine-2-carbonitrile]	30 nM	<3 nM	–	–
0.016 nM	99 nM	CCN1CCN(c2ccc(-c3cc(Nc4cnc(C#N)cn4)n[nH]3)c(OC)c2)C[C@H]1C [Example 93, 5-[[5-[4-[(3R)-4-ethyl-3-methyl-piperazin-1-yl]-2-methoxy-phenyl]-1H-pyrazol-3-yl]amino]pyrazine-2-carbonitrile]	<30 nM	<3 nM	–	–
0.016 nM	74 nM	COc1cc(N2CCN[C@H](C)C2)ccc1-c1cc(Nc2cnc(C#N)cn2)n[nH]1 [Example 82, 5-[[5-[2-methoxy-4-[(3R)-3-methylpiperazin-1-yl]phenyl]-1H-pyrazol-3-yl]amino]pyrazine-2-carbonitrile]	<30 nM	<3 nM	–	–
0.012 nM	433 nM	COc1cc(CNCC(C)C)ccc1-c1cc(Nc2cnc(C#N)cn2)n[nH]1 [Example 146, 5-[[5-[4-[(isobutylamino)methyl]-2-methoxy-phenyl]-1H-pyrazol-3-yl]amino]pyrazine-2-carbonitrile]	100 nM	3 nM	–	–
0.0084 nM	267 nM	CCN1CCC(CN(C)c2ccc(-c3cc(Nc4cnc(C#N)cn4)n[nH]3)c(OC)c2)CC1 [Example 145, 5-[[5-[4-[(1-ethyl-4-piperidyl)methyl-methyl-amino]-2-methoxy-phenyl]-1H-pyrazol-3-yl]amino]pyrazine-2-carbonitrile]	<100 nM	<3 nM	–	–
